Test results reported in patent US8435978B2, “Substituted sulfonamide compounds” (Gruenenthal GmbH, priority 2006, dated 2013).
Counter-ions that a name gives are not always drawn.

Tests used:
human B1R receptor = biological target: T1, human B1R receptor (Homo sapiens, UniProt P46663); assay: Functional study on the bradykinin receptor 1 (B1R), FLIPR Ca2+ assay, hB1R cells; assay type: cell-based; details: agonist Lys-Des-Arg9-bradykinin 0.5 nM, % inhibition compared with the maximum achievable inhibition; for inhibition at 10 µM: CHO-K1, test substance 10 μM, read-out: B1R Antagonism, human [10 μM] % Inhibition
T1 construct: host or cells: CHO K1 cells (Chinese hamster ovary), stably transfected
T1 sequence (P46663 1-353): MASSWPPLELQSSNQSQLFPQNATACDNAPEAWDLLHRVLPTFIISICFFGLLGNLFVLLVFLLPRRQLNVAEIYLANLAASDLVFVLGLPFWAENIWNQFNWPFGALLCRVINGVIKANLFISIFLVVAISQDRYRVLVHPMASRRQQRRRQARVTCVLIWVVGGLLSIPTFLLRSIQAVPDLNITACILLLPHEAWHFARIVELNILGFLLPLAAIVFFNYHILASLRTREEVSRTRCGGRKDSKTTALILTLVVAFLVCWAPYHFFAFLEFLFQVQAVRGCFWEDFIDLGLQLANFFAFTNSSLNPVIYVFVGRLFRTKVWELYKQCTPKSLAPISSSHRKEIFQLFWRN
How it was run: (§1)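 Readout: peak Fluo-4 Ca2+ fluorescence, FLIPR. Stable CHO K1 hB1R or rB1R cells; cpd 10 μM, 10 min preincubation, then agonist (hB1R: Lys-Des-Arg9-BK 0.5 nM; rB1R: Des-Arg9-BK 100 nM). Value = % inhibition relative to maximal achievable inhibition.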

B1R receptor of the rat = biological target: T2, B1R receptor of the rat (Rattus norvegicus, UniProt P97583); assay: Functional study on the bradykinin receptor 1 (B1R), FLIPR Ca2+ assay, rB1R cells; assay type: cell-based; details: agonist Des-Arg9-bradykinin 100 nM, % inhibition compared with the maximum achievable inhibition; for inhibition at 10 µM: CHO-K1, test substance 10 μM, read-out: B1R Antagonism, rat [10 μM] % Inhibition
T2 construct: host or cells: CHO K1 cells (Chinese hamster ovary), stably transfected
T2 sequence (P97583 1-337): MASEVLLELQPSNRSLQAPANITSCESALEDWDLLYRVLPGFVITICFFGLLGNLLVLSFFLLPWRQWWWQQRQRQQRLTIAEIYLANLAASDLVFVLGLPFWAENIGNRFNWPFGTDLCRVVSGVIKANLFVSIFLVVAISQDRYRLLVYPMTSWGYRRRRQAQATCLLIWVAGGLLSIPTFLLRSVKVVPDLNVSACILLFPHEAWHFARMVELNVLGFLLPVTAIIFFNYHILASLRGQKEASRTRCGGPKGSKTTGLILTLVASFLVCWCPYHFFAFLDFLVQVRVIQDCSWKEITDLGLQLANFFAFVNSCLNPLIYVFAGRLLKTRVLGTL
How it was run: as §1

| SMILES | inhibition at 10 µM (human B1R receptor) | inhibition at 10 µM (B1R receptor of the rat) | B1R Antagonism, human [10 μM] % Inhibition (human B1R receptor; test substance 10 μM, hB1R CHO K1 cells) | B1R Antagonism, rat [10 μM] % Inhibition (B1R receptor of the rat; test substance 10 μM, rB1R CHO K1 cells) |
| --- | --- | --- | --- | --- |
| CN1CCN(C(=O)COCC2CCCCN2S(=O)(=O)c2c(Cl)cc(Cl)cc2Cl)CC1 (stereo not drawn) [Example 393, 1-(4-methylpiperazin-1-yl)-2-((1-(2,4,6-trichlorophenylsulfonyl)piperidin-2-yl)methoxy)ethanone] | 104% | 101% |  |  |
| COc1cc(C)c(S(=O)(=O)N2CCCCC2COCC(=O)N2CCc3cc(N4CCN(C)CC4)ccc3C2)c(C)c1 (stereo not drawn) [Example 215, 2-((1-(4-methoxy-2,6-dimethylphenylsulfonyl)piperidin-2-yl)methoxy)-1-(6-(4-methylpiperazin-1-yl)-3,4-dihydroisoquinolin-2(1H)-yl)ethanone] | 99.9% | 101% |  |  |
| COc1cc(C)c(S(=O)(=O)N2CCCCC2COCC(=O)NC2CCN(Cc3ccccc3)C2)c(C)c1 (stereo not drawn) [Example 365, N-(1-benzylpyrrolidin-3-yl)-2-((1-(4-methoxy-2,6-dimethylphenylsulfonyl)piperidin-2-yl)methoxy)acetamide] | 55.6% | 99.8% |  |  |
| CN1CCC(N2CCN(C(=O)COC[C@@H]3Cc4ccccc4CN3S(=O)(=O)c3ccc(Cl)cc3Cl)CC2)CC1 [Example 133, (S)-2-((2-(2,4-dichlorophenylsulfonyl)-1,2,3,4-tetrahydroisoquinolin-3-yl)methoxy)-1-(4-(1-methylpiperidin-4-yl)piperazin-1-yl)ethanone] | 103% | 98.1% |  |  |
| Cc1cc(C)c(S(=O)(=O)N2Cc3ccccc3CC2COCC(=O)N2CCC(N3CCN(C)CC3)CC2)c(C)c1 (stereo not drawn) [Example 292, 2-((2-(mesitylsulfonyl)-1,2,3,4-tetrahydroisoquinolin-3-yl)methoxy)-1-(4-(4-methylpiperazin-1-yl)piperidin-1-yl)ethanone] | 106% | 99.2% |  |  |
| O=C(COCC1CCCCN1S(=O)(=O)c1ccc(Cl)c(Cl)c1)N1CCC(Cc2ccccc2)CC1 (stereo not drawn) [Example 57, 1-(4-benzyl-piperidin-1-yl)-2-[1-(3,4-dichloro-phenylsulfonyl)-piperidin-2-ylmethoxy]-ethanone] | 62.4% | 0% |  |  |
| COc1cc(C)c(S(=O)(=O)N2CCCC2COCC(=O)NCCCN2CCN(Cc3ccccc3)CC2)c(C)c1 (stereo not drawn) [Example 521, N-(3-(4-benzylpiperazin-1-yl)propyl)-2-((1-(4-methoxy-2,6-dimethylphenylsulfonyl)pyrrolidin-2-yl)methoxy)acetamide] | 85.2% | 99.3% |  |  |
| COCCN1CCN(C(=O)COCC2Cc3ccccc3CN2S(=O)(=O)c2c(C)cc(C)cc2C)CC1 (stereo not drawn) [Example 246, 2-((2-(mesitylsulfonyl)-1,2,3,4-tetrahydroisoquinolin-3-yl)methoxy)-1-(4-(2-methoxyethyl)piperazin-1-yl)ethanone] | 56.4% | 72.1% |  |  |
| O=C(COCC1CCCCN1S(=O)(=O)c1ccc(Cl)c(Cl)c1)N1CCC(N2CCCC2)CC1 (stereo not drawn) [Example 26, 2-[1-(3,4-dichloro-phenylsulfonyl)-piperidin-2-ylmethoxy]-1-(4-pyrrolidin-1-yl-piperidin-1-yl)-ethanone] | 86.8% | 4.56% |  |  |
| O=C(COCC1CCCCN1S(=O)(=O)c1c(Cl)cccc1Cl)N1CCN(CCO)CC1 (stereo not drawn) [Example 552, 2-((1-(2,6-dichlorophenylsulfonyl)piperidin-2-yl)methoxy)-1-(4-(2-hydroxyethyl)piperazin-1-yl)ethanone] | 46.8% | 101% |  |  |
| O=C(COCC1CCCN1S(=O)(=O)c1c(Cl)cccc1Cl)N1CCN(c2cccc(Cl)c2)CC1 (stereo not drawn) [Example 354, 1-(4-(3-chlorophenyl)piperazin-1-yl)-2-((1-(2,6-dichlorophenylsulfonyl)pyrrolidin-2-yl)methoxy)ethanone] | 62.5% | 102% |  |  |
| Cc1cccc(CC2CCCCN2C(=O)COCC2CCCCN2S(=O)(=O)c2c(Cl)cccc2Cl)n1 (stereo not drawn) [Example 284, 2-((1-(2,6-dichlorophenylsulfonyl)piperidin-2-yl)methoxy)-1-(2-((6-methylpyridin-2-yl)methyl)piperidin-1-yl)ethanone] | 103% | 93.5% |  |  |

The remaining lines, values ahead:

| inhibition at 10 µM (human B1R receptor) | inhibition at 10 µM (B1R receptor of the rat) | B1R Antagonism, human [10 μM] % Inhibition (human B1R receptor; test substance 10 μM, hB1R CHO K1 cells) | B1R Antagonism, rat [10 μM] % Inhibition (B1R receptor of the rat; test substance 10 μM, rB1R CHO K1 cells) | SMILES |
| --- | --- | --- | --- | --- |
| 43.7% | 40.8% |  |  | CN(C)CCCN1CCN(C(=O)COCC2CCCCN2S(=O)(=O)c2ccc(Cl)c(Cl)c2)CC1 (stereo not drawn) [Example 85, 2-[1-(3,4-dichloro-phenylsulfonyl)-piperidin-2-ylmethoxy]-1-[4-(3-dimethylamino-propyl)-piperazin-1-yl]-ethanone] |
| 101% | 97.8% |  |  | CN1CCC(N2CCN(C(=O)COCC3CCCCN3S(=O)(=O)c3cc(Cl)sc3Cl)CC2)CC1 (stereo not drawn) [Example 170, 2-((1-(2,5-dichlorothiophen-3-ylsulfonyl)piperidin-2-yl)methoxy)-1-(4-(1-methylpiperidin-4-yl)piperazin-1-yl)ethanone dihydrochloride] |
|  |  | 78.48% | 97.3% | Cc1cc(C)nc(CC2CCCN2C(=O)COCC2CCCCN2S(=O)(=O)c2cccc3ccccc23)c1 (stereo not drawn) [Example 240, 1-(2-((4,6-dimethylpyridin-2-yl)methyl)pyrrolidin-1-yl)-2-((1-(naphthen-1-ylsulfonyl)piperidin-2-yl)methoxy)ethanone] |
| 98.8% | 102% |  |  | CCN1CCN(C(=O)COCC2CCCN2S(=O)(=O)c2c(C)cc(OC)cc2C)CC1 (stereo not drawn) [Example 517, 1-(4-ethylpiperazin-1-yl)-2-((1-(4-methoxy-2,6-dimethylphenylsulfonyl)pyrrolidin-2-yl)methoxy)ethanone] |
| 39.2% | 102% |  |  | COc1cc(C)c(S(=O)(=O)N2CCCCC2COCC(=O)Nc2cccc(N3CCOCC3)c2)c(C)c1 (stereo not drawn) [Example 436, 2-((1-(4-methoxy-2,6-dimethylphenylsulfonyl)piperidin-2-yl)methoxy)-N-(3-morpholinophenyl)acetamide] |
| 53.2% | 95.2% |  |  | O=C(COCC1CCCN1S(=O)(=O)c1c(Cl)cc(Cl)cc1Cl)NCc1ccc(N2CCCCC2)cc1 (stereo not drawn) [Example 71, N-(4-piperidin-1-yl-benzyl)-2-[1-(2,4,6-trichloro-phenylsulfonyl)-pyrrolidin-2-yl-methoxy]-acetamide] |
| 44.9% | 34.1% |  |  | O=C(COCC1Cc2ccccc2N1S(=O)(=O)c1ccc(Cl)c(Cl)c1)NCc1ccc(CN2CCCC2)cc1 (stereo not drawn) [Example 81, 2-[1-(3,4-dichloro-phenylsulfonyl)-2,3-dihydro-1H-indol-2-ylmethoxy]-N-(4-pyrrolidin-1-ylmethyl-benzyl)-acetamide] |
| 99.9% | 100% |  |  | COc1cc(C)c(S(=O)(=O)N2CCCCC2COCC(=O)N2CCN(CCn3c(C)ccc3C)CC2)c(C)c1 (stereo not drawn) [Example 559, 1-(4-(2-(2,5-dimethyl-1H-pyrrol-1-yl)ethyl)piperazin-1-yl)-2-((1-(4-methoxy-2,6-dimethylphenylsulfonyl)piperidin-2-yl)methoxy)ethanone] |
| 105% | 101% |  |  | COc1cc(C)c(S(=O)(=O)N2CCCCC2COCC(=O)N2CCN(C3CCOCC3)CC2)c(C)c1 (stereo not drawn) [Example 104, 2-((1-(4-methoxy-2,6-dimethylphenylsulfonyl)piperidin-2-yl)methoxy)-1-(4-(tetrahydro-2H-pyran-4-yl)piperazin-1-yl)ethanone] |
| 98.7% | 99.8% |  |  | COc1cc(C)c(S(=O)(=O)N2CCCCC2COCC(=O)N2CCCN(C)CC2)c(C)c1 (stereo not drawn) [Example 375, 2-((1-(4-methoxy-2,6-dimethylphenylsulfonyl)piperidin-2-yl)methoxy)-1-(4-methyl-1,4-diazepan-1-yl)ethanone] |
| 102% | 58.1% |  |  | CN1CCC(N2CCN(C(=O)COCC3CCCCN3S(=O)(=O)c3ccc(Cl)c(C(F)(F)F)c3)CC2)CC1 (stereo not drawn) [Example 115, 2-((1-(4-chloro-3-(trifluoromethyl)phenylsulfonyl)piperidin-2-yl)methoxy)-1-(4-(1-methylpiperidin-4-yl)piperazin-1-yl)ethanone] |
| -11.8% | 106% |  |  | COc1cc(C)c(S(=O)(=O)N2CCCCC2COCC(=O)Nc2[nH]ncc2-c2ccc(OC)c(OC)c2)c(C)c1 (stereo not drawn) [Example 538, N-(4-(3,4-dimethoxyphenyl)-1H-pyrazol-5-yl)-2-((1-(4-methoxy-2,6-dimethylphenylsulfonyl)piperidin-2-yl)methoxy)acetamide] |
